Laboratory results reported in article PMC12257299 (RSC Advances, 2025).

Molecular target: GSK-3β (Homo sapiens, UniProt P49841)
Experiment: ADP-Glo kinase assay with Promega GSK-3β enzyme
Assay type: biochemical

Chain of GSK-3β (P49841 whole entry): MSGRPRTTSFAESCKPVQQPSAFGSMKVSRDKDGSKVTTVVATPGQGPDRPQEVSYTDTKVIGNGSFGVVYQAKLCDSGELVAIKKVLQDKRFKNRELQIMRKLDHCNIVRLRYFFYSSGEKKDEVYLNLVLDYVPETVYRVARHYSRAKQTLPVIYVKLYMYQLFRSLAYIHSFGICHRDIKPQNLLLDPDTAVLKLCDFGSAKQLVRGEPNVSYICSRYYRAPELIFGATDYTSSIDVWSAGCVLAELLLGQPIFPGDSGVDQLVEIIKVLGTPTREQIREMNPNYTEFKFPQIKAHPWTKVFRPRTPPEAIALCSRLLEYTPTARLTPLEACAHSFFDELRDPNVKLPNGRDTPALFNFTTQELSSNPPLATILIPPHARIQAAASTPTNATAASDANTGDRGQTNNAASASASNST

`COc1ccc(Cn2cc(CN3C(=O)C(=NNc4ccccc4)c4ccccc43)nn2)cc1` [6Ec, 1-((1-(4-Methoxybenzyl)-1H-1,2,3-triazol-4-yl)methyl)-3-(2-phenylhydrazono) indolin-2-one] gave an IC50 of 59.8 µM.
